The values that follow come from patent US8822535B2 (priority 2005, dated 2014).

Series [1] relates to mice. The note with it: mouse, in vivo; for effect on body (subcutaneous) temperature / effective dose (to lower subcutaneous temperature): sc.
The test system of a further series is dogs. Description: Gas matrix: metabolic flexibility in altered gas environments, dogs. Type of series: in vivo, dog. The note with it: 9%. How it is done:
(§1) Metabolic flexibility was evaluated in mice rats and dogs using altered gas environments. Three parameters were used to define this reduction in metabolism including changes in carbon dioxide production, oxygen consumption measured by respirometry, and core temperature as measured using telemetry. In experiments with mice and rats the animals were placed into sealed chambers with one gas import and one gas export. For dogs a mask was placed over the snout of the animal with two hoses (import and export) attached to the mask. The flow rate of gas for each of the animals mice—500 cc per minute, rats—2 liters per minute, and dogs 40 liters per minute. Each atmosphere was constructed from compressed gas by dilution into room air unless otherwise noted. For rat and mouse experiments the ambient temperature was 7 to 10° C. during exposure to the test gases. For dogs ambient temperature was room temperature (22° C.).
(§2) Evidence of depression in metabolic rate of greater than 5-fold as judged by carbon dioxide production or oxygen consumption during a 6-hour treatment is described by “Yes”; […]; “N/D” denotes experiments not done. The temperature drop in the dog experiment (Carbon dioxide+low oxygen+Helium) was approximately 1.5° C. over the course of 30 minutes of exposure. This drop in temperature was considered significant because the dog was 12 kg and no such temperature drop was seen during extensive baseline recording of the animal in room air.

The subject of series [2] is Drosophila melanogaster. Kind of series: Anoxia tolerance of Drosophila melanogaster after CO2 / H2S treatment. The class given is in vivo. The note with it: adult flies. As for the experimental part: Adult flies were introduced into 35 mL tubes made of glass with a gas-tight rubber stopper (Balsh tubes). This was usually accomplished by anesthetizing flies with CO2, moving groups of flies to vials with food to recover for at least 2 hours, and then transferring them into the Balsh tube. To exchange the gaseous environment in the Balsh tube, two 18 gauge needles were inserted into the rubber stopper, and gas is blown into one of the needles at 100 mL/min. To prevent dessication, gasses were humidified by bubbling through 10 mL of water before passing it through the Balsch tube. The water in the bubbler is equilibrated with the gas for at least 20 minutes before starting the experiment.
For “stopped-flow” experiments, gas exchange proceeded for 60 minutes before sealing the tube. For “low-flow” experiments, gas flow continued throughout the experiment. CO2 was from the house source (100%), and anoxic environments were established by flushing out room air with 100% nitrogen (N2). Care was taken to prevent introduction of room air into the system while switching the atmosphere from CO2 to N2.
After anoxic treatment, oxygen was reintroduced into the Balsh tube by flushing with house air for 20 minutes. The rubber stopper was then removed and a food vial is inverted over the top of the Balsh tubes with Parafilm. […] Viability was scored at least 18 hours after the end of anoxic treatment. After two weeks, if the food vials contained larvae and/or pupae the flies were considered to be fertile.

The subject of series [3] is mice. Kind of series: Gas matrix: metabolic flexibility in altered gas environments, mice. Type of series: in vivo, mouse. The settings on record: for depression in metabolic rate, Mouse: ambient 7 to 10° C., 6-hour treatment. How it is done:
as §1, §2

A further series has as its system rats. Description: Gas matrix: metabolic flexibility in altered gas environments, rats. The class given is in vivo, rat. The settings on record: ambient 7 to 10° C., 6-hour treatment. How it is done:
as §1, §2

Series [4] has as its system Drosophila melanogaster. Kind of series: Anoxia tolerance of Drosophila melanogaster after CO2 / H2S treatment. Type of series: in vivo.
Series [5] concerns mice. Set-up: species or system mouse (C57BL/6). The note with it: mouse, in vivo; for survival in lethal hypoxia: sc.
The subject of another series is nematodes (C. elegans). Kind of series: Nematode lethal hypothermia screening assay. The class given is in vivo. The settings on record: carbon monoxide atmosphere at room temperature prior to 4 degrees C. for 16 hrs. An excerpt: A screening assay was established using nematodes (C. elegans). […] Worms were exposed for X minutes at room temperature to an atmosphere containing Y % carbon monoxide, prior to exposing them to 4 degrees C. for 16 hrs. […] Since carbon monoxide is a known stasis inducer in nematodes and neonatal human foreskin keratinocytes, the nematode assay is capable of identifying stasis inducing compounds as such by their ability to increase the survivability of worms exposed to lethal hypothermia when the worms are pre-equilibrated in the stasis inducer or other active compound.

For series [6] the following is noted: cited from earlier work.
Series [7] concerns human foreskin keratinocytes. Type of series: cell-based.
The conditions of series [8]: previously reported in the literature; cited from earlier work.
In series [9] the test system is mice. The class given is in vivo, mouse.
[10] abbreviates: 100 ppb H2Se, less than 10 minutes (FIG. 26).

Where “and” joins values, the source holds several entries; their conditions need not be identical. Identical values can stand only once. Like-named read-outs stand apart in the source and are kept apart here.

In the case of `OCCS` [2-mercapto-ethanol], in the series with mice [1], the toxicity result is on record as “toxic at the effective temperature reducing dose” and the “effect on body (subcutaneous) temperature” value (“effect on body” below) is given as “reduced body temperature”.

`O=C=O` [CO2, carbon dioxide]: the “depression in metabolic rate, Dog” value with dogs (mask, room temperature (22° C.)) is “No 9% (“No” (reduction or less than a 5-fold reduction in these values is described as such)”. Besides, the “core body temperature (CBT)” value with dogs (dog, 12% and 15% carbon dioxide in room air (FIG. 40)) is on record as “A similar drop”. Further, the survival in the series with Drosophila melanogaster [2] (100% CO2 pretreatment 30 minutes, 19 h anoxic exposure, stopped-flow) is listed as 54%; in the series with Drosophila melanogaster [2] (100% CO2 pretreatment 90 minutes, 19 h anoxic exposure, stopped-flow) it was 28%; with Drosophila melanogaster [2] (10 min CO2 pretreatment, 17, 22, and 24 h of anoxia, low-flow), “no survival was observed”; with Drosophila melanogaster [2] (CO2 10 minutes before 20 h anoxic exposure, low-flow (no H2S)), 6%; with Drosophila melanogaster [2] (CO2 pretreatment and CO2 for 20 minutes immediately following anoxic exposure), “no flies survived”; in the series with Drosophila melanogaster [4] (adult flies, CO2 then N2 with bubbler water not equilibrated with N2, 13 h anoxic exposure), “no flies survived”. Also, the “depression in metabolic rate, Mouse” value in the series on mice [3] (15%) is recorded as “Yes 15% (Evidence of depression in metabolic rate of greater than 5-fold as judged by carbon dioxide production or oxygen consumption during a 6-hour treatment is described by “Yes”)”. Further, the “control of metabolic flexibility” value in the series with mice [3] (mice, 15% CO2) is reported as “affords control of metabolic flexibility”. For the same compound, the “tidal volume and respiration rate” value in the series with mice [3] (mice, 15% CO2) is listed as “tidal volume increases but respiration rate remains unchanged”. Moreover, in the series with rats (15%), the “depression in metabolic rate, Rat” value is “Yes 15% (Evidence of depression in metabolic rate of greater than 5-fold as judged by carbon dioxide production or oxygen consumption during a 6-hour treatment is described by “Yes”)”. Moreover, the movement upon reoxygenation entry in the series with Drosophila melanogaster [4] (larvae, pretreated, 24.5 h anoxia) is given as “can resume movement”. The pupae formed in the series on Drosophila melanogaster [4] (pool of 0-19 h old embryos, CO2 10 min pretreatment, anoxia 24 h) worked out at 20 pupae.

For `OC1CCSCC1` [tetrahydrothiopyran-4-ol], in the series on mice [5], the “survival in lethal hypoxia” value amounted to 15 min.

Consider `[C-]#[O+]` [CO, carbon monoxide], for which the “survival after exposure to cold” value in the series on nematodes (C. elegans) is given as “survived with high viability”. Moreover, the survival is 11% in the series with Drosophila melanogaster [2] (treated only with CO for 10 min before the anoxic exposure (18.5 h)); “entered into suspended animation and survived” in the series with C. elegans embryos (500 ppm oxygen balanced with carbon monoxide, 24 hr). Besides, the symptoms result in series [6] (50 ppm) is “no symptoms”; in series [6] (200 ppm, within two-three hours), “slight headache”; in series [6] (400 ppm, within one to two hours) it was “frontal headache”; in series [6] (800 ppm, within 45 minutes) it was “dizziness, nausea, and/or convulsions”. Moreover, the lethality result in series [6] (around 1000 ppm, exposure for more than around 1-2 minutes) is listed as “can expire”. Also, the “lethality and suspended animation” value with C. elegans embryos (100% carbon monoxide, 24 hr, room temperature) was “not lethal and induced reversible suspended animation”. Further, the survival to adulthood with C. elegans embryos (hif-1(ia04) embryos, 0.25 kPa O2/CO, 24 hrs) is 83.9% ± 13.8; with C. elegans embryos (hif-1(ia04) embryos, 0.25 kPa O2/CO, 24 hrs, listed as carbon monoxide), 84.0%; in the series on C. elegans embryos (wild-type (N2) embryos, 0.25 kPa O2/CO, 24 hrs), 78.7% ± 21.9; in the series on C. elegans embryos (wild-type (N2) embryos, 0.25 kPa O2/CO, 24 hrs, listed as carbon monoxide), 78.7%; in the series on C. elegans embryos (wild-type embryos, 101 kPa CO (100% CO), 24 hrs) it was 81.5%. The compound also had a viability to adulthood in the series on C. elegans embryos (wild-type embryos, 0.05 kPa O2 balanced with carbon monoxide, 24 hrs) of 96.2%. In addition, in [7], the “# cells recovered” value came to 167. In [7], the Total colonies is 542 colonies (many of which were very and 780 colonies (many of which were very. The “dead (tb+), SUM” value in series [7] is reported as 61. Further, the fraction alive in [7] is 0.91 and 0.50 and 0.77 and 0.83 and 0.54 and 0.80. Further, in [7], the “fraction alive, SUM” value amounted to 0.63. The “growth of keratinocyte populations” value in series [7] is recorded as “significant growth”. The “live (tb−), SUM” value in series [7] turned out to be 106. In addition, in [7], the “survival of skin cells relative to room air” value was 100 fold.

As for `N#C[S-].[Na+]` [sodium thiocyanate], the “effective dose (to lower subcutaneous temperature)” value in the series on mice [1] is 4.67 mmol/kg.

For the compound `CC(O)=S` [Thioacetic acid], the “effect on body” value in the series on mice [1] is recorded as “reduced body temperature”. For the same compound, in the series on mice [5], the “protection from lethal hypoxia” value is “did not enhance survival in hypoxia”.

As to `[SeH2]` [sodium selenide], the “effect on body” value with mice [1] was “did not reduce subcutaneous temperature”.

Take `N=C(N)[SeH]` [selenourea]: in the series with mice [1], the “effect on body” value is recorded as “reduced body temperature”. Moreover, the “protection from lethal hypoxia” value in the series with mice [5] is recorded as “did not enhance survival in hypoxia”.

In the case of `CSC` [dimethyl sulfide], in the series on mice [1], the “effect on body” value was “did not reduce subcutaneous temperature”.

Consider `SCCOCCS` [2-mercaptoethyl ether], for which, in the series with mice [1], the toxicity entry was “toxic at the effective temperature reducing dose” and the “effect on body” value is recorded as “reduced body temperature”.

Turning to `CS(=O)[O-].[Na+]` [sodium methane sulfinate], the “effect on body” value with mice [1] was “did not reduce subcutaneous temperature”.

Take `NCCCNCCSP(=O)(O)O` [phosphorothioic acid S-(2-((3-aminopropyl)amino)ethyl) ester]: the “effect on body” value with mice [1] is given as “reduced body temperature”. In addition, the “protection from lethal hypoxia” value in the series with mice [5] is listed as “did not enhance survival in hypoxia”.

Turning to `O=C(O)CS` [thioglycolic acid], in the series on mice [1], the toxicity entry is “toxic at the effective temperature reducing dose” and the “effect on body” value is “reduced body temperature”.

On to `CC(=O)N[C@@H](CS)C(=O)O` [N-acetyl-L-cysteine], for which the “effect on body” value in the series on mice [1] is reported as “did not reduce subcutaneous temperature”.

As for `C[S-].[Na+]` [sodium thiomethoxide], the “effective dose (to lower subcutaneous temperature)” value in the series with mice [1] turned out to be 4.61 mmol/kg. Also, the “survival in lethal hypoxia” value with mice [5] is 60 min.

Take `NCCS` [cysteamine]: the “effective dose (to lower subcutaneous temperature)” value with mice [1] is 7.58 mmol/kg. The “survival in lethal hypoxia” value with mice [5] came to 45 min.

Turning to `[SeH2]` [H2Se, hydrogen selenide], the “concentration lethal to animals” value in [8] is on record as “greater than 1 ppm”. In addition, the “core body temperature and respiration” value in the series on mice [9] (10 ppb of H2Se (FIG. 27)) was “reduction in core body temperature and respiration”. Further, in the series with mice [9] (setting [10]), the core body temperature result is “drop in core body temperature” and the “reduction in metabolic activity as evidenced by respiration” value is reported as 3 fold. Also, the reversibility of effects entry in the series on mice [9] (tests used to evaluate reversibility with H2S) is recorded as “fully reversible”. In the series with mice [3] (0.0001% in room air), the “depression in metabolic rate, Mouse” value is given as “Yes 0.0001% (Evidence of depression in metabolic rate of greater than 5-fold as judged by carbon dioxide production or oxygen consumption during a 6-hour treatment is described by “Yes”)”. The “core body temperature (CBT)” value in the series on mice [3] (mouse, 1.2 ppm of H2Se, 2 hours and 10 minutes, 5° C. ambient (FIG. 34)) is on record as “significant drop in CBT”. Moreover, the “depression in metabolic rate, Rat” value with rats (0.003% in room air) was “Yes 0.003% (Evidence of depression in metabolic rate of greater than 5-fold as judged by carbon dioxide production or oxygen consumption during a 6-hour treatment is described by “Yes”)”.
